{"source": "patent US9610370B2", "about": "“Compositions and methods for tumor imaging and targeting by a class of organic heptamethine cyanine dyes that possess dual nuclear and near-infrared properties” (University of Virginia Patent Foundation, priority 2011, dated 2017)", "key": {"OATP": {"tested_on": "OATP", "conditions": "cited from earlier work"}, "MCF-7 xenograft tumors": {"tested_on": "MCF-7 xenograft tumors", "assay": "Nuclear imaging (microPET/microSPECT) of mice with MCF-7 xenograft tumors", "type": "in vivo", "conditions": "for visualization of breast tumors in maximal projection images: PC-002 at 48 h post ip, 18F-FDG at 1.5 h post iv, same mouse, FIG. 4", "experimental": "FIG. 1 depicts the SPECT/CT image of PC-001 with a nude mouse model of a human breast cancer MCF-7 xenograft in accordance with various embodiments of the present invention. […] SPECT/CT scan was performed at 20 h post injection.\nFIG. 3 depicts the transverse PET images of PC-002 at 24 and 48 h post ip injection and ^18F-FDG at 1.5 h post iv injection of the same mouse (20 g) harbored with MCF-7 tumor xenografts in accordance with various embodiments of the present invention.\nFIG. 4 depicts the comparison of maximal projection images (MPIs) of PC-002 at 48 h post ip injection and ^18F-FDG at 1.5 h post iv injection of the same mouse (20 g) harbored with MCF-7 tumor xenografts in accordance with various embodiments of the present invention.\nFIG. 8 depicts the transverse PET images of PC-003 at 48 and 72 h post ip injection and with the same mouse (20 g) with MCF-7 tumor xenografts in accordance with various embodiments of the present invention.\nPC-001, PC-002, and PC-003 were evaluated as nuclear imaging probe using mice with MCF-7 xenograft tumors. […] PC-002/PET images were compared with FDG/PET with same mice."}, "[1]": {"tested_on": "human and mouse cancer cell lines in vitro and tumor xenografts in vivo", "conditions": "cited from earlier work"}, "[2]": {"assay": "Blood clearance in nude mice", "conditions": "mouse, in vivo", "experimental": "FIG. 6 depicts the blood clearance curve of PC-002 in nude mice in accordance with various embodiments of the present invention. The T1/2 is 256.9±13.2 min. (N=3).\nThe half-life (T1/2) of PC-001, PC-002, and PC-003 is 3, 4.3, and 3 hours, respectively. The long blood circulation times results in good images taken at later hours; for example, 24 to 72 hrs post injection."}, "[3]": {"tested_on": "subcutaneous C4-2 or tibial ARCaPM tumors", "assay": "Ex vivo fluorescent imaging and frozen-section microscopy of harvested tumors and soft tissues", "type": "in vivo, mice", "experimental": "FIG. 11 depicts the harvested bone ARCaPM and subcutaneous C4-2 human prostate tumors embedded with OCT at −25° C. and subjected to frozen sectioning using Cryostat in accordance with various embodiments of the present invention. The frozen sections were fixed and aqueously mounted and imaged using fluorescent microscopy (200× magnification). Note the Dual Nuclear/NIR Agent was actively uptaken into tumor cells.\nThe PC-002 (2 nmole) was intravenously injected into mouse with either subcutaneous C4-2 or tibial ARCaPM tumors and the mice were subjected to fluorescent imaging using the Xenogen Imaging System at the interval of 1 h, 2 h, 4 h, 8 h, 10 h, 12 h, 24 h and 48 h after the dye injection. The fluorescence signal was found accumulating in subcutaneous C4-2 tumor beginning at 24 hr while the signal was found at 2 hr in the in intratibial ARCaPM tumor in mouse skeleton (FIG. 9).\nThe harvested bone (ARCaPM) and subcutaneous (C4-2) tumors were embedded with OCT at −25° C. and subjected to frozen sectioning using Cryostat."}, "MCF-7 xenografts": {"tested_on": "MCF-7 xenografts", "assay": "NIR fluorescence imaging, in vivo and ex vivo, of mice with MCF-7 xenografts", "conditions": "dissected tumor, ex vivo, FIG. 7", "experimental": "FIG. 2 depicts the NIR fluorescence image of PC-002 with a nude mouse (20 g) with MCF-7 tumor xenografts in accordance with various embodiments of the present invention. PC-002 (10 nmol) in saline (200 ul) was injected via tail vein. The live fluorescence images were performed at time points (as indicated) post injection using an IVIS Spectrum device (Ex/Em=745/800 nm).\nFIG. 7 depicts the correlation of PC-002 uptake and ex vivo images in accordance with various embodiments of the present invention. A MCF-7 xenograft tumor was dissected and cut into two halves.\nThe optical imaging property of “cold” counterpart of PC-002, comprising stable copper isotope, was evaluated with mice models with MCF-7, C4-2, and ARCaPM tumors. In mice with MCF-7 xenografts, tumor uptake of PC-002 was discernable at 3 hrs post injection and contrast of tumor and normal tissues reached most profound at 24 hrs post injection (FIG. 2).\nAt 24 hrs post PC-002 injection, a MCF-7 xenograft tumor was dissected and cut into two halves. The viable sections of the tumor in white, right photograph matched with PC-002 fluorescence distribution performed using a Caliper Spectrum device (FIG. 7). The cancer cells in the microscopic image of the H/E stained tumor slice were also overlapped with PC-002 NIR fluorescence of the same tumor slice."}, "[4]": {"tested_on": "xenograft prostate tumors", "assay": "PET imaging of xenograft prostate tumors", "type": "in vivo, mice", "conditions": "FIG. 16", "source_text": "FIGS. 16A-D illustrate PET imaging of xenograft prostate tumors.\nIn the past, several attractive PET probes, such as ^18F-2-fluoro-2-deoxy-D-glucose (18 F-FDG) or 111In-tagged antibodies, and more recently the development of smaller sized versions of antibodies such as diabodies and minibodies recognizing PSMA and PSCA, have been proposed to detect PCa; but because of their relative large molecular weight as antibodies, potential host immune response to foreign antibodies, and the lack of Pca specificity using 18F-FDG, application of PET/SPECT probe to detect PCa has not been successful. […] As a small molecule, PC-002 has the advantages of being non-immunogenic, easier to purify and to scale-up, and higher stability for storage and shipping. Because of suboptimal NIR dye signal penetration through deep tissues, we chemically synthesized PC-002, a lead PET 64Cu-DOTA-NIR dye30, to facilitate future translation to the clinic. […] Based on this highly promising result, 64Cu-DOTA-based NIR dye for imaging PCa bone and soft tissue metastases can be used concurrently with 99 mTc-MDP to detect reactive bone activity. For example, this strategy can be used in the robust mouse models of PCa metastasis developed by our laboratory. […]"}}, "note": "Read-outs that look alike come from different tables or passages of the source."}
{"smiles": "O=C1OC(c2ccc(O)c(S(=O)(=O)O)c2)(c2ccc(O)c(S(=O)(=O)O)c2)c2c(Br)c(Br)c(Br)c(Br)c21", "note": "[BSP]", "values": [{"measurement": "effect on NIR dye uptake", "setting": "OATP", "value": "completely blocked"}]}
{"smiles": "OC[C@H]1OC(O)[C@H]([18F])[C@@H](O)[C@@H]1O", "note": "(stereo partly drawn) [FDG, 18F-2-fluoro-2-deoxy-D-glucose, reference compound]", "values": [{"measurement": "visualization of breast tumors in maximal projection images", "setting": "MCF-7 xenograft tumors", "value": "only barely seen"}]}
{"smiles": "CC1(C)C(=CC=C2CCCC(C=CC3=[N+](CCCCS(=O)(=O)[O-])c4ccccc4C3(C)C)=C2Cl)N(CCCCS(=O)(=O)[O-])c2ccccc21.[Na+]", "note": "[IR783]", "values": [{"measurement": "uptake and retention by cancer cell lines and tumor xenografts", "setting": "[1]", "value": "uptake and retention"}]}
{"smiles": "CCCN1/C(=C/C=C2\\CCCC(/C=C/C3=[N+](CCC)c4ccccc4C3(C)C)=C2Cl)C(C)(C)c2ccccc21.[I-]", "note": "[IR-780]", "values": [{"measurement": "uptake and retention by cancer cell lines and tumor xenografts", "setting": "[1]", "value": "uptake and retention"}]}
{"smiles": "CC1(C)C(/C=C/C2=C(Cl)C(=C/C=C3/N(CCCCCC(=O)NCCCCC(NC(=O)C[N+]45CC[N+]6(CC(=O)[O-])CC[N+]7(CC(=O)[O-])CC[N+](CC(=O)O)(CC4)[64Cu-2]765)C(=O)O)c4ccccc4C3(C)C)/CCC2)=[N+](CCCCCC(=O)O)c2ccccc21", "note": "(centres unmarked) [PC-002]", "values": [{"measurement": "SUV of MCF-7 tumor relative to hind leg muscles", "setting": "MCF-7 xenograft tumors; FIG. 5", "value": 6, "unit": "times"}, {"measurement": "visualization of breast tumors in maximal projection images", "setting": "MCF-7 xenograft tumors", "value": "clearly visualized"}, {"measurement": "suitability as nuclear imaging probe", "setting": "MCF-7 xenograft tumors; microPET or microSPECT", "value": "suitable candidates for molecular imaging of cancer"}, {"measurement": "tumor contrast and selectivity compared with FDG/PET", "setting": "MCF-7 xenograft tumors; same mice, FIGS. 3 and 4", "value": "higher tumor contrast and selectivity than FDG"}, {"measurement": "half-life", "setting": "[2]; half-life (T1/2), blood clearance", "value": 4.3, "unit": "h"}, {"measurement": "half-life", "setting": "[2]; nude mice, N=3, FIG. 6, read-out: blood clearance T1/2", "value": "4.28 ± 0.22", "unit": "h"}, {"measurement": "uptake in frozen sections, fluorescent microscopy", "setting": "[3]; 200× magnification, FIG. 11", "value": "selectively uptaken in cancer cells"}, {"measurement": "uptake and retention, ex vivo fluorescent imaging", "setting": "[3]; harvested at 24 hrs post injection, FIG. 10", "value": "in tumor only"}, {"measurement": "association of NIR and PC-002 signals with tumor tissue type", "setting": "MCF-7 xenografts", "value": "associated with viable and not necrotic tissues"}, {"measurement": "selectivity for tumor xenografts", "setting": "[4]", "value": "remarkable selectivity"}]}
